The values below come from patent US20220315554A1, “COMPOUNDS COMPRISING A […] LIGAND AND USE THEREOF” (priority 2019, published 2022).

The target in assay [1] is T1, FAP-expressing human WI-38 fibroblasts (Homo sapiens, UniProt Q12884).
T1 construct: FAP-expressing human WI-38 fibroblasts (ECACC) were cultured in EMEM; host or cells: WI-38 human fibroblasts
T1 sequence (Q12884 1-760): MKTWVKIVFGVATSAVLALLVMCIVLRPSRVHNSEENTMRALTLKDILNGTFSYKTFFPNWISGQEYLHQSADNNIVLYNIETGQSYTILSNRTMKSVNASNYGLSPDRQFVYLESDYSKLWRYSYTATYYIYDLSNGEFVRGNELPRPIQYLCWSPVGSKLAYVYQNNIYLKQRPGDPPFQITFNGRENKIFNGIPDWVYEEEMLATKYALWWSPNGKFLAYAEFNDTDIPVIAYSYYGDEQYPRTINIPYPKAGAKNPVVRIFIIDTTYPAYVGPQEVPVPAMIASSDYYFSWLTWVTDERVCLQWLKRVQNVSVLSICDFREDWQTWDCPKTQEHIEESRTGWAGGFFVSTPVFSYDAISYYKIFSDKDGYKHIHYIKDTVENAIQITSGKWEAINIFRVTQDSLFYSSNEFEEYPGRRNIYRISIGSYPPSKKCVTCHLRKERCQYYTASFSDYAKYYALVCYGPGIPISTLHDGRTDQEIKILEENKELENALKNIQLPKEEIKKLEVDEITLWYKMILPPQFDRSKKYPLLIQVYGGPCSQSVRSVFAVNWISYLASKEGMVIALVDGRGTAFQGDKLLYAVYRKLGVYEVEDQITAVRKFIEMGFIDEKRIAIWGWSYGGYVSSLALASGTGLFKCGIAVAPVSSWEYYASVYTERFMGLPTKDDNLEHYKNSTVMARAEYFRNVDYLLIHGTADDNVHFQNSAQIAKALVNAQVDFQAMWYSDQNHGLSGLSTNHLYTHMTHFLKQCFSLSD
Kind of assay: Competitive FACS binding assay. The conditions noted are these: pIC50 Category (FACS), competition with 3 nM Cy5-labeled compound, WI-38 fibroblasts, 4° C., 1 hour. Here is the method: Cells were analyzed in an Attune NxT flow cytometer. […]

Another assay has as its target T2, Human recombinant FAP (Homo sapiens, UniProt Q12884).
T2 sequence (Q12884 1-760): T1 sequence (Q12884 1-760)
The experiment in a line: FRET-based FAP protease activity assay. Also on record: purchased R&D systems 3715-SE. Format: biochemical. The conditions noted are these: pIC50 Category (Activity), recombinant human FAP, FRET substrate, 37° C.

Numbered stars: 1 amine (or outer) side, 2 acyl side, 3 side chain; on linkers, the order of the positions; unused ones are H or OH. Bridge positions count the residues as written; N and C are the ends. Square brackets hold non-standard residues; d marks the D form. Peptide text beside a SMILES is read from it. * marks the point of attachment. X3 = NC(=O)[C@H](CCCCNC(=O)CN1CCN(CC(=O)O)CCN(CC(=O)O)CCN(CC(=O)O)CC1)NC(=O)CCC(=O)NCCCOCCOCCOCCCN*; mXylylene = c1cc(C[*:1])cc(C[*:2])c1; X44 = O=C(CC1CCN([*:1])CC1)[*:2]; 4Pal = N[C@@H](Cc1ccncc1)C(=O)O; 4Amb = NCc1ccc(C(=O)O)cc1; Hexanoyl = CCCCCC(=O)* Some results are limits rather than exact numbers.

As for `CSCC[C@H](NC(C)=O)C(=O)N[C@H]1CSCc2cccc(c2)CSC[C@@H](C(=O)N[C@@H](CC(=O)O)C(=O)N[C@@H](Cc2c[nH]cn2)C(=O)N[C@@H](Cc2ccccc2)C(N)=O)NC(=O)[C@H](Cc2ccccc2)NC(=O)[C@H](CCC(=O)O)NC(=O)[C@H]([C@@H](C)O)NC(=O)[C@@H]2CCCN2C(=O)[C@@H]2CCCN2C1=O` [3BP-3199, Ac-Met-[Cys(3MeBn)-Pro-Pro-Thr-Glu-Phe-Cys]-Asp-His-Phe-NH2] (Ac-MCPPTEFCDHF-NH2; linker 2-8 via mXylylene), the IC50 lay within 100 to 794 nM in assay [1] and 10 to 79.4 nM on Human recombinant FAP.
For the molecule `CSCC[C@H](NC(C)=O)C(=O)N[C@H]1CSCc2cccc(c2)CSC[C@@H](C(=O)N[C@@H](CC(=O)O)C(=O)N[C@@H](Cc2c[nH]cn2)C(=O)N[C@@H](Cc2ccccc2)C(=O)N[C@@H](CCCNC(=N)N)C(N)=O)NC(=O)[C@H](Cc2ccccc2)NC(=O)[C@H](CCC(=O)O)NC(=O)[C@H]([C@@H](C)O)NC(=O)[C@@H]2CCCN2C(=O)[C@@H]2CCCN2C1=O` [3BP-3200, Ac-Met-[Cys(3MeBn)-Pro-Pro-Thr-Glu-Phe-Cys]-Asp-His-Phe-Arg-NH2] (Ac-MCPPTEFCDHFR-NH2; linker 2-8 via mXylylene), the IC50 (in assay [1]; at Human recombinant FAP) was under 10 nM throughout.
Turning to `CSCC[C@H](NC(C)=O)C(=O)N[C@H]1CSCc2cccc(c2)CSC[C@@H](C(=O)N[C@@H](CC(=O)O)C(=O)N[C@@H](Cc2c[nH]cn2)C(=O)N[C@@H](Cc2ccccc2)C(=O)N[C@@H](CCCNC(=N)N)C(=O)N[C@H](CC(=O)O)C(N)=O)NC(=O)[C@H](Cc2ccccc2)NC(=O)[C@H](CCC(=O)O)NC(=O)[C@H]([C@@H](C)O)NC(=O)[C@@H]2CCCN2C(=O)[C@@H]2CCCN2C1=O` [3BP-3213, Ac-Met-[Cys(3MeBn)-Pro-Pro-Thr-Glu-Phe-Cys]-Asp-His-Phe-Arg-asp-NH2] (Ac-MCPPTEFCDHFR[dD]-NH2; linker 2-8 via mXylylene), the IC50 (in assay [1]; at Human recombinant FAP) was under 10 nM throughout.
With `CSCC[C@H](NC(C)=O)C(=O)N[C@H]1CSCc2cccc(c2)CSC[C@@H](C(=O)N[C@@H](CC(=O)O)C(=O)N[C@@H](Cc2c[nH]cn2)C(=O)N[C@@H](Cc2ccccc2)C(=O)N[C@@H](CCCNC(=N)N)C(=O)N[C@@H](CC(=O)O)C(N)=O)NC(=O)[C@H](Cc2ccccc2)NC(=O)[C@H](CCC(=O)O)NC(=O)[C@H]([C@@H](C)O)NC(=O)[C@@H]2CCCN2C(=O)CNC1=O` [3BP-3214, Ac-Met-[Cys(3MeBn)-Gly-Pro-Thr-Glu-Phe-Cys]-Asp-His-Phe-Arg-Asp-NH2] (Ac-MCGPTEFCDHFRD-NH2; linker 2-8 via mXylylene), the IC50 (in assay [1]; at Human recombinant FAP) was under 10 nM throughout.
In the case of `CSCC[C@H](NC(C)=O)C(=O)N[C@H]1CSCc2cccc(c2)CSC[C@@H](C(=O)N[C@@H](CC(=O)O)C(=O)N[C@@H](Cc2c[nH]cn2)C(=O)N[C@@H](Cc2ccccc2)C(=O)N[C@@H](CCCNC(=N)N)C(=O)N[C@@H](CC(=O)O)C(N)=O)NC(=O)[C@H](Cc2ccccc2)NC(=O)[C@H](CCC(=O)O)NC(=O)[C@H]([C@@H](C)O)NC(=O)[C@@H]2CCCN2C(=O)[C@@H](C)NC1=O` [3BP-3215, Ac-Met-[Cys(3MeBn)-ala-Pro-Thr-Glu-Phe-Cys]-Asp-His-Phe-Arg-Asp-NH2] (Ac-MC[dA]PTEFCDHFRD-NH2; linker 2-8 via mXylylene), the IC50 (in assay [1]; at Human recombinant FAP) was 100 to 794 nM throughout.
`CCCCCC(=O)N[C@H]1CSCc2cccc(c2)CSC[C@@H](C(=O)N[C@@H](CC(=O)O)C(=O)N[C@@H](Cc2c[nH]cn2)C(=O)N[C@H](Cc2ccccc2)C(=O)N[C@@H](CCCNC(=N)N)C(=O)NCCCOCCOCCOCCCNC(=O)CCC(=O)N[C@@H](CCCCNC(=O)CN2CCN(CC(=O)O)CCN(CC(=O)O)CCN(CC(=O)O)CC2)C(N)=O)NC(=O)[C@H](Cc2ccccc2)NC(=O)[C@H](CCC(=O)O)NC(=O)[C@H]([C@@H](C)O)NC(=O)[C@@H]2CCCN2C(=O)[C@@H]2CCCN2C1=O` [3BP-3276, Hex-[Cys(3MeBn)-Pro-Pro-Thr-Glu-Phe-Cys]-Asp-His-phe-Arg-Ttds-Lys(DOTA)-NH2] (Hexanoyl-CPPTEFCDH[dF]R-X3; linker 1-7 via mXylylene): the IC50 (in assay [1]; at Human recombinant FAP) was under 10 nM in each case.
For `CCCCCC(=O)N[C@H]1CSCc2cccc(c2)CSC[C@@H](C(=O)N[C@@H](CC(=O)O)C(=O)N[C@@H](Cc2c[nH]cn2)C(=O)N[C@@H](Cc2ccncc2)C(=O)N[C@H](CCCNC(=N)N)C(=O)NCCCOCCOCCOCCCNC(=O)CCC(=O)N[C@@H](CCCCNC(=O)CN2CCN(CC(=O)O)CCN(CC(=O)O)CCN(CC(=O)O)CC2)C(N)=O)NC(=O)[C@H](Cc2ccccc2)NC(=O)[C@H](CCC(=O)O)NC(=O)[C@H]([C@@H](C)O)NC(=O)[C@@H]2CCCN2C(=O)[C@@H]2CCCN2C1=O` [3BP-3277, Hex-[Cys(3MeBn)-Pro-Pro-Thr-Glu-Phe-Cys]-Asp-His-Ppa-arg-Ttds-Lys(DOTA)-NH2] (Hexanoyl-CPPTEFCDH[4Pal][dR]-X3; linker 1-7 via mXylylene), the IC50 (in assay [1]; on Human recombinant FAP) was under 10 nM in each case.
For `CCCCCC(=O)N[C@H]1CSCc2cccc(c2)CSC[C@@H](C(=O)N[C@@H](CC(=O)O)C(=O)N[C@@H](CCCNC(=N)N)C(=O)O)NC(=O)[C@H](Cc2ccccc2)NC(=O)[C@H](CCC(=O)O)NC(=O)[C@H]([C@@H](C)O)NC(=O)[C@@H]2CCCN2C(=O)[C@@H]2CCCN2C1=O` [3BP-3299, Hex-[Cys(3MeBn)-Pro-Pro-Thr-Glu-Phe-Cys]-Asp-Arg-NH2] (Hexanoyl-CPPTEFCDR-OH; linker 1-7 via mXylylene), the IC50 (in assay [1]; at Human recombinant FAP) was under 10 nM in each case.
For the molecule `CCCCCC(=O)N[C@H]1CSCc2cccc(c2)CSC[C@@H](C(=O)N[C@@H](CC(=O)O)C(=O)N2CCC(CC(=O)N[C@@H](CCCNC(=N)N)C(N)=O)CC2)NC(=O)[C@H](Cc2ccccc2)NC(=O)[C@H](CCC(=O)O)NC(=O)[C@H]([C@@H](C)O)NC(=O)[C@@H]2CCCN2C(=O)[C@@H]2CCCN2C1=O` [3BP-3302, Hex-[Cys(3MeBn)-Pro-Pro-Thr-Glu-Phe-Cys]-Asp-Cmp-Arg-NH2] (Hexanoyl-CPPTEFCD[X44]R-NH2; linker 1-7 via mXylylene), the IC50 (in assay [1]; on Human recombinant FAP) was under 10 nM in each case.
For the molecule `CCCCCC(=O)N[C@H]1CSCc2cccc(c2)CSC[C@@H](C(=O)NCc2ccc(C(=O)N[C@@H](CCCNC(=N)N)C(N)=O)cc2)NC(=O)[C@H](Cc2ccccc2)NC(=O)[C@H](CCC(=O)O)NC(=O)[C@H]([C@@H](C)O)NC(=O)[C@@H]2CCCN2C(=O)[C@@H]2CCCN2C1=O` [3BP-3303, Hex-[Cys(3MeBn)-Pro-Pro-Thr-Glu-Phe-Cys]-Pamb-Arg-NH2] (Hexanoyl-CPPTEFC[4Amb]R-NH2; linker 1-7 via mXylylene), the IC50 is 10 to 79.4 nM in assay [1] and under 10 nM at Human recombinant FAP.
Regarding `CCCCCC(=O)N[C@H]1CSCc2cccc(c2)CSC[C@@H](C(N)=O)NC(=O)[C@H](Cc2ccccc2)NC(=O)[C@H](CCC(=O)O)NC(=O)[C@H]([C@@H](C)O)NC(=O)[C@@H]2CCCN2C(=O)CNC1=O` [3BP-3345, Hex-[Cys(3MeBn)-Gly-Pro-Thr-Glu-Phe-Cys]-NH2] (Hexanoyl-CGPTEFC-NH2; linker 1-7 via mXylylene), the IC50 in assay [1] was 100 to 794 nM; on Human recombinant FAP it was 10 to 79.4 nM.
